We go through 2 substances from US20170106011A1, “METHODS OF TREATING TRAUMATIC BRAIN INJURY AND SEQUELAE” (Cantex Pharmaceuticals, Inc., priority 2015, published 2017).

The nature of one assay: USP anticoagulant assay. The format is biochemical.
Assay [1] relates to patients with moderate TBI. The assay can be described thus: clinical trial of ODSH infusion in moderate TBI. The conditions noted are these: ODSH infusion added to best supportive care. The format is in vivo. As for the experimental part:
FIG. 4 outlines the phase II clinical trial of ODSH for treating TBI.
A clinical trial is conducted.
Enrollment criteria are (i) moderate TBI: Glasgow Coma Score (GCS) of 9-12, or if patient is intubated, GCS 7-9; (ii) cerebral contusions on CT scan. Patients are randomized into 2 groups. Both groups receive best supportive care. This is an active treatment control. One group additionally receives infusion of ODSH.

Assay [2] deals with middle cerebral artery occlusion animal model. The assay can be described thus: secondary brain injury after middle cerebral artery occlusion in an animal model. Type of assay: in vivo.
The conditions of assay [3]: comparator, Rao et al. 2010; cited from earlier work.

“Also recorded” adds a separate entry of the source.

Consider 2-O, 3-O-desulfated heparin [ODSH], for which, in “USP anticoagulant assay”, the “anticoagulant activity in the USP anticoagulant assay” value is reported as “less than 9 U/mg” and the “anticoagulant activity in the USP anticoagulant assay (e.g. value)” value was found to be 7±0.3 U. Further, the inflammatory biomarkers result in assay [1] is “reduces”. For the same substance, the “Glasgow Outcome Scale scores” value in assay [1] (at 6 months) is “improves”. Also, the “Montreal Cognitive Assessment (MoCA) score” value in assay [1] (six months post-injury) was “improves”. The secondary brain injury result in assay [2] is on record as “reduction of secondary brain injury; also recorded: reduced secondary brain injury”.
Consider unfractionated heparin, for which the “activity in the USP anticoagulant assay” value in assay [3] is recorded as 165-190 U/mg.
